How the values were obtained:
[1] = tested on: proteasome CT-L activity; assay: Binding kinetics: CT-L activity in RPMI8226 cells at different time points after 1-h pulse treatment; format: cell-based, human; settings: CT-L activity in RPMI8226 cells after 1-h pulse treatment
[2] = Cytotoxicity in normal PBMC from healthy donors (CellTiter-Glo); format: cell-based; settings: human, 10,000 nM, read-out: Viability of normal PBMC at highest concentration tested
Method: (§1) Primary MM cells were retrieved from bone marrow of patients and were enriched by Ficoll density centrifugation to a purity of >90 %, as necessary. Purity was assessed by cytomorphology on stained samples. CD138^+ cells were collected using magnetic beads (Miltenyi Biotec) and plated at a density of 8 × 10^4 cells per well onto 96-well plates in RPMI-1640 (WELGENE) containing 10 % FBS (WELGENE), 1 % penicillin-streptomycin-amphotericin B (Gibco), and 2 mM L-glutamine. Cells were then treated with a serial dilution of compound in medium containing a final concentration of 0.2 % DMSO. Cultures were incubated for 48 h and cells were then assayed for viability using the CellTiter-Glo Luminescent Cell Viability Assay kit (Promega).
Peripheral blood mononuclear cells (PBMCs) isolated from the heparinized blood samples of normal healthy donors were also plated and processed as described above.

[3] = biological target: T1, 20S proteasome T-L, β2 (Homo sapiens, UniProt Q99436); assay: In vitro 20S proteasome inhibition in RPMI8226 cell lysate, Z-Ala-Arg-Arg-AMC substrate; format: biochemical; settings: RPMI8226 cellular lysates, 1 h at 37 °C
T1 sequence (Q99436 44-277): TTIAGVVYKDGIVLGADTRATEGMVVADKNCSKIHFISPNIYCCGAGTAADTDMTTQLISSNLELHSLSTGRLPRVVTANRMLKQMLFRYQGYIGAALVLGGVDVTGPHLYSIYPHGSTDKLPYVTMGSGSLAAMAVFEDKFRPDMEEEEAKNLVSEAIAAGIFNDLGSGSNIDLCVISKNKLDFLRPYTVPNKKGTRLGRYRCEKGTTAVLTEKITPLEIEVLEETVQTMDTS
Method: (§2) Pomalidomide was purchased from Tokyo Chemical Industry.
(§3) RPMI8226 cell lysate was used for the in vitro proteasome inhibition assay. Cells were washed with PBS and resuspended in 20 mM Tris–HCl, pH 7.5. Then, cells were lysed on ice by dounce homogenization and the supernatants were collected by centrifugation. The assay was conducted in 96-well plates by incubating 2 μg of lysates with serial dilutions of a test compound and 20 μM of substrate at 37 °C for 1 h. After incubation, production of hydrolyzed AMC groups was measured using a FlexStation II Fluorometer (Molecular Devices) or using a Spectra MAX Gemini Fluorometer (Molecular Devices) with an excitation filter of 380 nm and an emission filter of 460 nm.

[4] = tested on: MM.1S xenografts; assay: Anti-tumor activity of repeat oral dosing in MM.1S xenograft model; format: in vivo, mice; settings: 5 mg/kg oral twice a week
Method: (§4) In vivo efficacy studies were performed in female BALB/c nude mice (8 weeks old) purchased from ORIENT Bio or female NOD.SCID mice (11–13 weeks old) purchased from HFK Bioscience. The animals were housed and maintained in a controlled environment including a 12 h light and 12 h dark cycle with automatic timers and received food and water ad libitum. All experiments were done under protocols approved by the Institutional Animal Care and Use Committee (IACUC). Moribund animals were sacrificed when necessary and animal carcasses were disposed of according to IACUC guidelines.
1 × 10^7 MM.1S tumor cells in 0.1 ml of Dulbecco’s Phosphate-Buffered Saline (1:1 matrigel) were implanted subcutaneously into the right flank of female athymic nude mice. Tumor growth was monitored with calipers and mice were divided into homogeneous cohorts according to their initial tumor volume. […] The compounds were formulated in 0.5 % methyl cellulose and administered at the indicated doses and regimens by oral gavage at a dose volume of 10 mL/kg. For the RPMI8226 model, a total of 1 × 10^7 cells in 0.2 ml of PBS (1:1 matrigel) were implanted subcutaneously into the hind flank of female NOD.SCID mice. Whole blood was collected by cardiac puncture into tubes containing sodium heparin and cells were harvested by centrifugation. Blood cell pellets and tumor tissues were homogenized in lysis buffer (50 mM Tris–HCl, pH 8.0, 5 mM EDTA, 150 mM NaCl, 0.5 % Nonidet P-40, 0.5 mM phenylmethylsulfonyl fluoride, and 0.5 mM dithiothreitol) for 30 min at 4 °C. The lysates were centrifuged at 14,000 × g for 30 min, and the supernatants were collected as whole blood cell extracts and tumor cell extracts, respectively, for pharmacodynamic analysis. […] The mean, standard deviation (SD), and standard error of the mean (SEM) were calculated for each experimental group, and statistical analyses were performed using standard two tailed Student’s t-test (significance defined as P ≤ 0.05).

[5] = biological target: T2, 20S proteasome C-L, β1 (Homo sapiens, UniProt P28072+Q99436); assay: In vitro 20S proteasome inhibition in RPMI8226 cell lysate, Z-Leu-Leu-Glu-AMC substrate; format: biochemical; settings: RPMI8226 cellular lysates, 1 h at 37 °C
T2 construct: endogenous in cells; host or cells: RPMI8226 (human multiple myeloma)
Method: as §2, §3

[6] = tested on: RPMI8226 xenografts; assay: Anti-tumor activity of repeat dosing in RPMI8226 xenograft model; format: in vivo; settings: 5 mg/kg oral, the day after the first treatment, NOD.SCID mice
Method: as §4
(§5) 1 × 10^7 MM.1S tumor cells in 0.1 ml of Dulbecco’s Phosphate-Buffered Saline (1:1 matrigel) were implanted subcutaneously into the right flank of female athymic nude mice. Tumor growth was monitored with calipers and mice were divided into homogeneous cohorts according to their initial tumor volume. […] The compounds were formulated in 0.5 % methyl cellulose and administered at the indicated doses and regimens by oral gavage at a dose volume of 10 mL/kg. […] The mean, standard deviation (SD), and standard error of the mean (SEM) were calculated for each experimental group, and statistical analyses were performed using standard two tailed Student’s t-test (significance defined as P ≤ 0.05).

[7] = tested on: CD138+ cells from bone marrow of MM patients; assay: Viability of primary myeloma cells from MM patients (CellTiter-Glo); format: cell-based, human; settings: patient 14 sample (bortezomib- and ixazomib-refractory), 48 h, % over DMSO control
Method: as §1

[8] = tested on: MM.1S xenografts; assay: MM.1S xenograft study of LC53-0151 with or without pomalidomide; format: in vivo, mice; settings: pomalidomide 2.5 mg/kg oral 5 days per week, 3 weeks; not statistically significant
Method: as §4
as §5, with “0.05). […]” for “0.05).”

CC(C)C[C@H](NC(=O)[C@H](Cc1ccccc1)NC(=O)c1cnccn1)B(O)O [Bortezomib]
Binding kinetics [1]: reversible

CC(C)C[C@H](NC(=O)[C@H](CCc1ccccc1)NC(=O)CN1CCOCC1)C(=O)N[C@@H](Cc1ccccc1)C(=O)N[C@@H](CC(C)C)C(=O)[C@@]1(C)CO1 [Carfilzomib]
Binding kinetics [1]: irreversible

CC(C)C[C@H](NC(=O)CNC(=O)c1cc(Cl)ccc1Cl)B(O)O [Ixazomib]
viability at 48 h, 10000 nM [2]: > 50%
IC50 [3]: > 10000 nM
Binding kinetics [1]: reversible
Tumor volume, % of start tumor volume (maximum regression) ([4]; day 8): 36%
Tumor growth inhibition compared to vehicle control ([4]; day 15): 72%
Tumor volume, % of start tumor volume ([4]; day 15): 58%
IC50 [5]: 6 to 7 nM
Mortality in efficacy model [6]: all 8 mice died or were euthanized
Viability at 12.5 nM [7]: did not show any effect on viability

Nc1cccc2c1C(=O)N(C1CCC(=O)NC1=O)C2=O (stereo not drawn) [pomalidomide, Pomalidomide]
Reduction of tumor volume compared to vehicle-treated mice [8]: 10%

Source: publication PMC4806471, “Oral proteasome inhibitor with strong preclinical efficacy in myeloma models” (BMC Cancer, 2016)
